From US11633377B2, “Treatment of circadian rhythm disorders” (Vanda Pharmaceuticals Inc., priority 2012, dated 2023)

Tests used:
[1] = Effect of fluvoxamine co-administration on tasimelteon pharmacokinetics; assay type: in vivo, human; settings: for Geometric Mean Ratio, AUC / Geometric Mean Ratio, Cmax / Geometric Mean Ratio, t1/2: Day 8 (with fluvoxamine) vs Day 1; for AUC: both sexes, human, in vivo
Method: Twenty-four healthy male or female subjects between the ages of 18 and 55 years of age (inclusive) who were non-smokers with a body mass index (BMI) of 18 and 35 kg/m2 participated in this open-label, single-sequence study conducted at one site. On day 1, subjects were administered 5.667 mg of tasimelteon.

[2] = Effect of smoking on concentration of tasimelteon and metabolites; assay type: in vivo, human; settings: Smokers vs Non-Smokers
Source text: Smokers were defined as those smoking 10 or more cigarettes per day. Non-smokers were defined as those smoking no cigarettes per day.

[3] = Day 1: 5.667 mg tasimelteon alone

CCC(=O)NC[C@@H]1C[C@H]1c1cccc(O)c1CCO [M11]
Geometric Mean Ratio, AUC [1]: 126.03% | Geometric Mean Ratio, Cmax [1]: 68.71% | Geometric Mean Ratio, t1/2 [1]: 248.35% | AUC [1, 3]: 44.5 ± 17.2 ng·h/mL | Geometric Mean Ratio, AUC (inf) [2]: 81.84% | Geometric Mean Ratio, Cmax [2]: 84.50% | Geometric Mean Ratio, t1/2 [2]: 94.13%

CCC(=O)NCC1CC1c1cccc2c1CC(O)O2 (stereo not shown) [M13]
AUC (ml) [1, 3]: 106 ± 32.6 ng·h/mL | Geometric Mean Ratio, AUC [1]: 125.05% | Geometric Mean Ratio, Cmax [1]: 69.31% | Geometric Mean Ratio, t1/2 [1]: 349.81% | AUC (ml) ([1]; Day 8: 5.667 mg tasimelteon + 50 mg fluvoxamine): 133 ± 32.9 ng·h/mL | Geometric Mean Ratio, AUC (inf) [2]: 97.31% | Geometric Mean Ratio, Cmax [2]: 99.49% | Geometric Mean Ratio, t1/2 [2]: 77.51%

CCC(=O)NC[C@@H]1C[C@H]1c1cccc(O)c1CC(=O)O [M9]
Geometric Mean Ratio, AUC [1]: 122.56% | Geometric Mean Ratio, Cmax [1]: 64.94% | Geometric Mean Ratio, t1/2 [1]: 328.02% | AUC [1, 3]: 104 ± 30 ng·h/mL | Geometric Mean Ratio, AUC (inf) [2]: 74.36% | Geometric Mean Ratio, Cmax [2]: 77.18% | Geometric Mean Ratio, t1/2 [2]: 85.40%
